{"source": "paper PMC7409197", "about": "“Adenosine Receptors as Neuroinflammation Modulators: Role of A1 Agonists and A2A Antagonists” (Cells, 2020)", "format_in_all_cases": "cell-based, rat", "key": {"mixed glial cells [1]": {"test_system": "mixed glial cells", "experiment": "CellTiter 96 AQueous One (MTS) cell viability, ligands alone, mixed glial cells", "experimental": "(§1) Newborn male Wistar rats were sacrificed and mixed glial cell cultures were obtained from the cerebral cortices. Cerebral cortices were dissected, and meninges were cleared away. Tissues were treated with trypsin solution (trypsin 0.05% (w/v) trypsin-EDTA 5 mM) for 25 min at 37 °C. The tissue was fully disaggregated by pipetting and the dissociated cells were seeded in a 6-well plate with Dulbecco’s modified Eagle’s/High glucose medium enriched with 100 U/mL penicillin, 100 µg/mL streptomycin and 10% FBS. Fresh medium was changed the next day and then every 3 days decreasing the quantity of FBS. All experiments were carried out after 7–9 days of plating.\n(§2) Mixed glial cell cultures were divided into 2 groups, one to study A1AR partial agonists and another for A2AAR antagonists. Cells from the first group were pre-treated with 2 µL at three different concentrations of C1 for 15, 30 or 60 min and then with further addition of a pro-inflammatory cocktail of cytokines (TNF-α, 20 ng/mL; IL-1β, 20 ng/mL; IFN-γ 20 ng/mL) for 48 h. […] To study C2 cells were pre-treated with the same CK cocktail for 48 h and then with 2 µL of C2 at three different concentrations for 15, 30, or 60 min (Scheme 1). ZM241385, a well known A2AAR antagonist, was used as reference compound. Furthermore, ligands and CK were tested alone for 15, 30 or 60 min and 48 h respectively.\n(§3) 1.7 × 10^4 mixed glial cells were cultured in 98 μL of the specific medium in a 96 well plate overnight. The next day 2 μL of ligand or CK cocktail were added to the well. After all treatments, 20 µL of CellTiter 96® AQueous One Solution Reagent was added in a final volume of 100 µL. Absorbance was read at 490 nm using the plate reader GENiosPro. Cell viability was calculated as percentage using the following formula: Cell viability =OD mean of treated cells/OD mean of control cells × 100"}, "mixed glial cells [2]": {"test_system": "mixed glial cells", "experiment": "MTS cell viability in cytokine cocktail (CK) inflammatory model, mixed glial cells", "experimental": "as §1, §2, §3"}, "mixed glial cells [3]": {"test_system": "mixed glial cells", "experiment": "Griess assay (nitrite production) in mixed glial cells", "settings": "10 nM, 30 min, after CK cocktail", "experimental": "To test the antioxidant capacity of these new molecules Griess assay was performed. The Griess Reagent System is based in the conversion of sulphanilamide into an azo-compound with the presence of N-1-napthylenediamide dihydrochloride (NED) under acidic condition. 1.7 × 10^4 mixed glial cells were cultured in 98 μL of the specific medium in a 96 well plate overnight. After 24 h the media from each well of the cell culture was transferred into a 96 well plate and then 50 µL of the sulphanilamide solution was added to each well. After 5–10 min of incubation at room temperature (rt), 50 µL of the NED Solution were dispensed to all wells and they were incubated at rt for other 5–10 min. Absorbance was measured within 30 min in the plate reader GENiosPro with a filter between 520 nm and 550 nm. This experiment was performed 3–5 replicates. Concentration of NO¬¬¬¬2¯ in each sample was determined by comparison to a Nitrite standard reference curve."}}}
{"smiles": "OC[C@H]1O[C@@H](n2cnc3c(NC4CCCC4)nc(Cl)nc32)[C@H](O)[C@@H]1O", "note": "[CCPA, 2-chloro-N^6-cyclopentyladenosine, reference compound]", "values": [{"measurement": "cell viability vs. control", "setting": "mixed glial cells [1]; ligand alone, 5, 10, 60 nM, 15, 30, 60 min", "value": "did not change cell viability significantly"}, {"measurement": "prevention of CK aggression (cell viability, words)", "setting": "mixed glial cells [2]; pre-treatment before CK cocktail 48 h, C1 2-30 µM, CCPA 10 nM 30 min", "value": "prevent the CK aggression"}]}
{"smiles": "Nc1nc(NCCc2ccc(O)cc2)nc2nc(-c3ccco3)nn12", "note": "[ZM241385, reference compound]", "values": [{"measurement": "cell viability vs. control", "setting": "mixed glial cells [1]; ligand alone, 10 nM, time not stated at the place (highest effect at 30 min)", "value": "135 ± 3.5", "unit": "%"}, {"measurement": "nitrite levels in presence of CK cocktail", "setting": "mixed glial cells [3]", "value": "able to decrease NO¬¬¬¬2¯ levels induced by CK more than the well know ZM241385"}, {"measurement": "cell viability vs. control", "setting": "mixed glial cells [2]; CK cocktail 20 ng/mL 48 h, then ligand 10 nM for 30 min", "value": "136 ± 1.7", "unit": "%"}]}
